This is an account of results in US7211577B2, “Water-soluble phenylpyridazine derivative and medicine containing the same” (Kowa Co., Ltd., priority 2003, dated 2007).

Bounds are passed on as bounds.

Assay in one series: not given
Settings: not given
On to `CSc1ccc(-c2cc(CN3CCN(C)CC3)c(=O)n(CC3CC3)n2)cc1.Cl.Cl` [Example 149, 2-cyclopropylmethyl-4-(4-methyl-1-piperazinyl)methyl-6-[4-(methylthio)phenyl]-2H-pyridazin-3-one dihydrochloride], for which the melting point (in general, the temperature, or range, at which the solid turns liquid) is 234.6 to 239.2 °C. The same measure, in the same setting: then `C#CCNCc1cc(-c2ccc(SC)cc2)nn(CC(C)C)c1=O.Cl` [Example 163, 2-isobutyl-6-[4-(methylthio)phenyl]-4-propargylaminomethyl-2H-pyridazin-3-one hydrochloride], with 197.5 to 198.4 °C; and `COc1ccc(-c2cc(CN3CCN(C)CC3)c(=O)n(Cc3ccc(F)cc3)n2)cc1F` [Example 189, 2-(4-fluorobenzyl)-6-(3-fluoro-4-methoxyphenyl)-4-(4-methyl-1-piperazinyl)methyl-2H-pyridazin-3-one], with 112 to 113 °C; and `COc1ccc(-c2cc(CN(C)C)c(=O)n(Cc3ccc(F)cc3)n2)cc1F` [Example 190, 4-dimethylaminomethyl-2-(4-fluorobenzyl)-6-(3-fluoro-4-methoxyphenyl)-2H-pyridazin-3-one], with 127 to 129 °C. Same read-out and setting: then `COc1ccc(-c2cc(CN3CCNCC3)c(=O)n(Cc3ccc(F)cc3)n2)cc1F` [Example 192, 2-(4-fluorobenzyl)-6-(3-fluoro-4-methoxyphenyl)-4-(1-piperazinyl)methyl-2H-pyridazin-3-one], with 142 to 143 °C; and `COc1ccc(-c2cc(CN)c(=O)n(Cc3ccc(F)cc3)n2)cc1F` [Example 194, 4-aminomethyl-2-(4-fluorobenzyl)-6-(3-fluoro-4-methoxyphenyl)-2H-pyridazin-3-one], with 145 to 149 °C; and `COc1ccc(-c2cc(CN(C)C)c(=O)n(CCCc3ccc(F)cc3)n2)cc1F` [Example 197, 4-dimethylaminomethyl-6-(3-fluoro-4-methoxyphenyl)-2-[3-(4-fluorophenyl)propyl]-2H-pyridazin-3-one], with 97 to 100 °C. `COc1ccc(-c2cc(CN)c(=O)n(CCCc3ccc(F)cc3)n2)cc1F` [Example 200, 4-aminomethyl-6-(3-fluoro-4-methoxyphenyl)-2-[3-(4-fluorophenyl)propyl]-2H-pyridazin-3-one] returned a melting point of 82 to 84 °C.

As to `COc1ccc(-c2cc(CN(C)C)c(=O)n(Cc3ccc(Cl)cc3)n2)cc1F` [Example 203, 2-(4-chlorobenzyl)-4-dimethylaminomethyl-6-(3-fluoro-4-methoxyphenyl)-2H-pyridazin-3-one], the melting point lay within 95.3 to 96.7 °C. On the same count and under the same terms, then `COc1ccc(-c2cc(CN)c(=O)n(Cc3ccc(Cl)cc3)n2)cc1F` [Example 205, 4-aminomethyl-2-(4-chlorobenzyl)-6-(3-fluoro-4-methoxyphenyl)-2H-pyridazin-3-one], with 128.5 to 131.4 °C. On the same count and under the same terms, under `COc1ccc(-c2cc(CN3CCN(C)CC3)c(=O)n(Cc3ccc(F)c(F)c3)n2)cc1F` [Example 207, 2-(3,4-difluorobenzyl)-6-(3-fluoro-4-methoxyphenyl)-4-(4-methyl-1-piperazinyl)methyl-2H-pyridazin-3-one] stands 135.4 to 136 °C. On the same count and under the same terms, then `COc1ccc(-c2cc(CN(C)C)c(=O)n(Cc3ccc(F)c(F)c3)n2)cc1F` [Example 208, 2-(3,4-difluorobenzyl)-4-dimethylaminomethyl-6-(3-fluoro-4-methoxyphenyl)-2H-pyridazin-3-one], with 129.9 to 130.4 °C.

The molecule `COc1ccc(-c2cc(CN3CCN(C)CC3)c(=O)n(CC=Cc3ccc(Cl)cc3)n2)cc1F` [Example 209, 2-(4-chlorocinnamyl)-6-(3-fluoro-4-methoxyphenyl)-4-(4-methyl-1-piperazinyl)methyl-2H-pyridazin-3-one] displayed a melting point of 123.9 to 125.5 °C. `Cc1cc(-c2cc(CN3CCN(C)CC3)c(=O)n(Cc3ccc(Cl)cc3)n2)ccc1F` [Example 222, 2-(4-chlorobenzyl)-6-(4-fluoro-3-methylphenyl)-4-(4-methyl-1-piperazinyl)methyl-2H-pyridazin-3-one]: the melting point fell in the range of 133.3 to 133.8 °C. Still for that read-out and setting: under `Cc1cc(-c2cc(CN3CCN(C)CC3)c(=O)n(Cc3ccccc3Cl)n2)ccc1F` [Example 224, 2-(2-chlorobenzyl)-6-(4-fluoro-3-methylphenyl)-4-(4-methyl-1-piperazinyl)methyl-2H-pyridazin-3-one] stands 149.7 to 150.9 °C; under `Cc1cc(-c2cc(CCCN)c(=O)n(Cc3ccccc3Cl)n2)ccc1F` [Example 227, 4-(3-aminopropyl)-2-(2-chlorobenzyl)-6-(4-fluoro-3-methylphenyl)-2H-pyridazin-3-one], 80 to 85 °C. The molecule `Cc1cc(-c2cc(CN)c(=O)n(Cc3ccccc3Cl)n2)ccc1F` [Example 237, 4-aminomethyl-2-(2-chlorobenzyl)-6-(4-fluoro-3-methylphenyl)-2H-pyridazin-3-one] came in with a melting point of 97.6 to 102.2 °C.

Molecule `COc1ccc(-c2cc(CCCN3CCN(C)CC3)c(=O)n(Cc3ccc(F)cc3)n2)cc1F` [Example 239, 2-(4-fluorobenzyl)-6-(3-fluoro-4-methoxyphenyl)-4-[3-(4-methyl-1-piperazinyl)propyl]-2H-pyridazin-3-one] gave a melting point of 108 to 109 °C.

The nature of another series: Water solubility test. In kind it is physicochemical. Conditions: 100 mL purified water added. How it is done:
Experiment 2 (Water Solubility Test) Testing Method
Each sample compound was weighed in the amount shown in Table 3, to which purified water was added in 0.05 mL aliquots. The solubility (%) of the compound was determined based on the amount of water required for its dissolution.
Take `CCOC(=O)Nc1cc(-c2ccc(OC)cc2)nn(C/C=C/c2ccc(Cl)cc2)c1=O` [compound 1, reference compound]: the “Dissolution in the added water (in words)” value (“Dissolution” below) is “(insoluble)”.

As for `CNC(=O)c1cc(-c2ccc(OC)cc2)nn(CC(C)C)c1=O` [compound 2, reference compound], the “Dissolution” value was “(insoluble)”.

For `COc1ccc(-c2cc(C(=O)O)c(=O)n(C/C=C/c3ccc(Cl)cc3)n2)cc1` [compound 4, reference compound], the “Dissolution” value is listed as “(insoluble)”.

Staying with this series, now noted: purified water, from amount of water required for dissolution.
Turning to `COc1ccc(-c2cc(CN3CCN(Cc4ccccc4)CC3)c(=O)n(CC3CC3)n2)cc1F.Cl.Cl` [Example 18, 4-(4-benzyl-1-piperazinyl)methyl-2-cyclopropylmethyl-6-(3-fluoro-4-methoxyphenyl)-2H-pyridazin-3-one dihydrochloride], the “Solubility (%)” value was determined as 1%. Consider `COc1ccc(-c2cc(CN3CCNCC3)c(=O)n(CC3CC3)n2)cc1F.Cl.Cl` [Example 21, 2-cyclopropylmethyl-6-(3-fluoro-4-methoxyphenyl)-4-(1-piperazinyl)methyl-2H-pyridazin-3-one dihydrochloride], for which the “Solubility (%)” value was above 20%. With `COc1ccc(-c2cc(CN)c(=O)n(CC3CC3)n2)cc1F.Cl` [Example 25, 4-aminomethyl-2-cyclopropylmethyl-6-(3-fluoro-4-methoxyphenyl)-2H-pyridazin-3-one hydrochloride], the “Solubility (%)” value amounted to 0.4%. `Cc1ccc(-c2cc(CN(C)C)c(=O)n(CC(C)C)n2)cc1.Cl` [Example 45, 4-dimethylaminomethyl-2-isobutyl-6-(4-methylphenyl)-2H-pyridazin-3-one hydrochloride]: the “Solubility (%)” value is recorded as 4%. Same read-out and setting: under `CCN(CC)Cc1cc(-c2ccc(C)cc2)nn(CC(C)C)c1=O.Cl` [Example 47, 4-diethylaminomethyl-2-isobutyl-6-(4-methylphenyl)-2H-pyridazin-3-one hydrochloride] stands above 20%; under `Cc1cc(-c2cc(CN(C)C)c(=O)n(CC(C)C)n2)ccc1F.Cl` [Example 89, 4-dimethylaminomethyl-6-(4-fluoro-3-methylphenyl)-2-isobutyl-2H-pyridazin-3-one hydrochloride], above 20%.

In the case of `CSc1ccc(-c2cc(CN3CCN(C)CC3)c(=O)n(CC3CC3)n2)cc1.Cl.Cl` [Example 149, 2-cyclopropylmethyl-4-(4-methyl-1-piperazinyl)methyl-6-[4-(methylthio)phenyl]-2H-pyridazin-3-one dihydrochloride], the “Solubility (%)” value is reported as above 10%. On the same count and under the same terms, then `COc1ccc(-c2cc(CN)c(=O)n(CC3CCCC3)n2)cc1F.Cl` [Example 188, 4-aminomethyl-2-cyclopentylmethyl-6-(3-fluoro-4-methoxyphenyl)-2H-pyridazin-3-one hydrochloride], with 0.08%; and `COc1ccc(-c2cc(CN3CCNCC3)c(=O)n(Cc3ccc(F)cc3)n2)cc1F.Cl.Cl` [Example 193, 2-(4-fluorobenzyl)-6-(3-fluoro-4-methoxyphenyl)-4-(1-piperazinyl)methyl-2H-pyridazin-3-one dihydrochloride], with 5%; and `COc1ccc(-c2cc(CN)c(=O)n(Cc3ccc(F)cc3)n2)cc1F.Cl` [Example 195, 4-aminomethyl-2-(4-fluorobenzyl)-6-(3-fluoro-4-methoxyphenyl)-2H-pyridazin-3-one hydrochloride], with 0.2%.

With `COc1ccc(-c2cc(CN)c(=O)n(Cc3ccc(Cl)cc3)n2)cc1F.Cl` [Example 206, 4-aminomethyl-2-(4-chlorobenzyl)-6-(3-fluoro-4-methoxyphenyl)-2H-pyridazin-3-one hydrochloride], the “Solubility (%)” value was 0.06%. The same measure, in the same setting: then `COc1ccc(-c2cc(CCCN3CCNCC3)c(=O)n(CC3CC3)n2)cc1F.Cl.Cl` [Example 214, 2-cyclopropylmethyl-6-(3-fluoro-4-methoxyphenyl)-4-[3-(1-piperazinyl)propyl]-2H-pyridazin-3-one dihydrochloride], with 10%; and `COc1ccc(-c2cc(CCCN)c(=O)n(CC3CC3)n2)cc1F.Cl` [Example 217, 4-(3-aminopropyl)-2-cyclopropylmethyl-6-(3-fluoro-4-methoxyphenyl)-2H-pyridazin-3-one hydrochloride], with 10%; and `CCOC(=O)Nc1cc(-c2ccc(OC)cc2)nn(C/C=C/c2ccc(Cl)cc2)c1=O` [compound 1, reference compound], with below 0.001%. The same measure, in the same setting: under `CNC(=O)c1cc(-c2ccc(OC)cc2)nn(CC(C)C)c1=O` [compound 2, reference compound] stands below 0.001%; under `COc1ccc(-c2cc(C(=O)O)c(=O)n(C/C=C/c3ccc(Cl)cc3)n2)cc1` [compound 4, reference compound], below 0.001%.

A short description of the next series: Oral absorbability test on rats and/or mice. The class given is in vivo. Conditions: orally administered to mice and/or rats, as in Experiment 3. The source says: Experiment 4 (Oral Absorbability Test on Rats and/or Mice)
In a similar manner as in Experiment 3, test compounds of Examples 23, 25, 143, 193, 245, 246, 247, 248 and 249 were orally administered to mice and/or rats to test their oral absorbability.
`COc1ccc(-c2cc(CN)c(=O)n(CC3CC3)n2)cc1F.Cl` [Example 25, 4-aminomethyl-2-cyclopropylmethyl-6-(3-fluoro-4-methoxyphenyl)-2H-pyridazin-3-one hydrochloride]: the “Oral absorbability (FIGS. 2 to 6)” value was “good absorbability”. The same measure, in the same setting: then `COc1ccc(-c2cc(CN3CCNCC3)c(=O)n(Cc3ccc(F)cc3)n2)cc1F.Cl.Cl` [Example 193, 2-(4-fluorobenzyl)-6-(3-fluoro-4-methoxyphenyl)-4-(1-piperazinyl)methyl-2H-pyridazin-3-one dihydrochloride], with “good absorbability”.
